The values that follow are results of earlier work, collected in patent US20240141352A1, “CHAPERONIN-CONTAINING TCP-1 INHIBITORS FOR THE TREATMENT OF CANCER” (UNIVERSITY OF CENTRAL FLORIDA RESEARCH FOUNDATION, INC., priority 2021, published 2024).

One data set has as its system MDA-MB-231 cells. The note with it: MDA-MB-231 spheroids.
For data set [1], the system named is breast and prostate tumors. The note with it: systemic delivery with polymeric nanoparticles.
Data set [2] deals with cancer cells that highly express CCT.
A further data set addresses T1, CCT2 subunit (Homo sapiens, UniProt P78371).
T1 sequence (P78371 1-535): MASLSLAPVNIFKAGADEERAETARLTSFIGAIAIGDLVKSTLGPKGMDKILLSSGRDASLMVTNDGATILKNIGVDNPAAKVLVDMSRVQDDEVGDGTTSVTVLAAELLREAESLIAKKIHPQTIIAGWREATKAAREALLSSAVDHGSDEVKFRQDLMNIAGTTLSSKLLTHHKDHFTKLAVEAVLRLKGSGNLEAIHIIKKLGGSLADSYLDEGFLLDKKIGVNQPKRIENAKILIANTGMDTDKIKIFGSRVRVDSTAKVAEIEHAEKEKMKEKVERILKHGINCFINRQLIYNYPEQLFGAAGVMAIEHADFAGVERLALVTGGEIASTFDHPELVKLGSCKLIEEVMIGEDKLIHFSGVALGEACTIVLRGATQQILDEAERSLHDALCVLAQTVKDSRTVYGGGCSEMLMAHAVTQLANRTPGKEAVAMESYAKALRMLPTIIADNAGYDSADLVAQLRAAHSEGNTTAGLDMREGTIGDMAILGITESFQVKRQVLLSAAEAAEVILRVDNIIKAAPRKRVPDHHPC

On to `N.N.O=C([O-])C1(C(=O)[O-])CCC1.[Pt+2]` [carboplatin], for which the “resistance of spheroids to treatment” value with MDA-MB-231 cells was “increased resistance”. For `COc1cccc2c1C(=O)c1c(O)c3c(c(O)c1C2=O)C[C@@](O)(C(=O)CO)C[C@@H]3O[C@H]1C[C@H](N)[C@H](O)[C@H](C)O1` [doxorubicin], the “resistance of spheroids to treatment” value with MDA-MB-231 cells is “increased resistance”. VTIFVAGVLTASLTIWKKMG [CT20p]: the tumor regression entry in data set [1] is on record as “regression”. Moreover, in data set [2], the cytotoxicity result was “cytotoxic”. The “binding to CCT2 subunit” value in the data set with CCT2 subunit was “directly binds”.
